Measurements reported in ChEMBL document CHEMBL2150905, “Discovery of Disubstituted Imidazo[4,5-b]pyridines and Purines as Potent TrkA Inhibitors” (ACS Med Chem Lett, 2012).
≈ marks a conversion by molar mass, not a printed value.

Legend:
[1] = Half life in Han Wistar rat at 10 mg/kg, po and 3 mg/kg, iv; format: ADME, organism-based; conditions: in vivo
[2] = Oral bioavailability in Han Wistar rat at 10 mg/kg; format: ADME, organism-based; conditions: in vivo
in vitro [3] = conditions: human, plasma
Description: Fraction unbound in human plasma

NIH3T3 [4] = test: Antitumor activity against 3T3 cells overexpressing constitutively active TRKA allografted in CrTac:Ncr-Foxn1nu mouse assessed as tumor growth delay time at 25 mg/kg, po BID for 7 days; format: functional
Mus musculus [5] = test: Toxicity in 3T3 cells overexpressing constitutively active TRKA allografted CrTac:Ncr-Foxn1nu mouse assessed as weight loss at 1 to 25 mg/kg, po BID for 7 days; format: organism-based, NIH3T3; design: dose 1-25 mg/kg, route oral; conditions: in vivo, 168 h
in vivo = conditions: Han Wistar, rat, iv, 3 mg/kg
Description: Clearance in Han Wistar rat at 10 mg/kg, po and 3 mg/kg, iv

in vitro [6] = conditions: rat, hepatocytes
Description: Intrinsic clearance in rat hepatocytes assessed per million cells by LC/MS/MS analysis

physchem = conditions: buffer
Description: Aqueous solubility of the compound

NIH3T3 [7] = test: Antitumor activity against 3T3 cells overexpressing constitutively active TRKA allografted in CrTac:Ncr-Foxn1nu mouse assessed as tumor regression at 25 mg/kg, po BID for 7 days; format: functional
NIH3T3 [8] = test: animal or person; conditions: Mus musculus, NIH3T3, po, 168 h, read-out: TGI
Description: Antitumor activity against 3T3 cells overexpressing constitutively active TRKA allografted in CrTac:Ncr-Foxn1nu mouse assessed as tumor growth inhibition at 1 mg/kg, po BID for 7 days

NIH3T3 [9] = test: Antitumor activity against 3T3 cells overexpressing constitutively active TRKA allografted in CrTac:Ncr-Foxn1nu mouse assessed as tumor regression at 5 mg/kg, po BID for 7 days; format: functional
[10] = Clearance in beagle dog at 10 mg/kg, po and 2 mg/kg, iv; format: ADME, organism-based, Canis lupus familiaris; conditions: in vivo
[11] = Oral bioavailability in beagle dog at 10 mg/kg; format: ADME, organism-based, Canis lupus familiaris; conditions: in vivo
NIH3T3 [12] = test: Antitumor activity against 3T3 cells overexpressing constitutively active TRKA allografted in CrTac:Ncr-Foxn1nu mouse assessed as tumor stasis at 5 mg/kg, po BID for 7 days; format: functional
[13] = Half life in beagle dog at 10 mg/kg, po and 2 mg/kg, iv; format: ADME, organism-based, Canis lupus familiaris; conditions: in vivo
[14] = target: Voltage-gated inwardly rectifying potassium channel KCNH2 (Homo sapiens, UniProt Q12809)
Mus musculus [15] = test: Toxicity in 3T3 cells overexpressing constitutively active TRKA allografted CrTac:Ncr-Foxn1nu mouse assessed as weight loss at 1 to 5 mg/kg, po BID for 7 days; format: organism-based, NIH3T3; design: dose 1-5 mg/kg, route oral; conditions: in vivo, 168 h
[16] = target: T1, Tyrosine-protein kinase BTK (Homo sapiens, UniProt Q06187); test: Inhibition of BTK at 10 uM
[17] = target: Proto-oncogene tyrosine-protein kinase receptor Ret (Homo sapiens, UniProt P07949); test: Inhibition of Ret
[18] = target: T2, Serine/threonine-protein kinase WNK3 (Homo sapiens, UniProt Q9BYP7); conditions: 10 uM
Description: Inhibition of WNK3 at 10 uM

[19] = target: Receptor-type tyrosine-protein kinase FLT3 (Homo sapiens, UniProt P36888); test: Inhibition of Flt3
[20] = target: T3, Fibroblast growth factor receptor 1 (Homo sapiens, UniProt P11362); test: Inhibition of FGFR1
[21] = target: Tyrosine-protein kinase ITK/TSK (Homo sapiens) (UniProt Q08881); test: Inhibition of Itk at 10 uM
[22] = target: T4, Tyrosine-protein kinase JAK2 (Homo sapiens, UniProt O60674); test: Inhibition of JAK2
[23] = target: Tyrosine-protein kinase ITK/TSK (Homo sapiens, UniProt Q08881); test: Inhibition of Itk
[24] = target: T5, High affinity nerve growth factor receptor (Homo sapiens, UniProt P04629); test: Inhibition of TrkA
[25] = target: T6, Tyrosine-protein kinase Fgr (Homo sapiens, UniProt P09769); test: Inhibition of Fgr at 10 uM
[26] = target: T1, Tyrosine-protein kinase BTK; test: Inhibition of BTK
[27] = target: T5, High affinity nerve growth factor receptor; conditions: 10 uM
Description: Inhibition of TrkA at 10 uM

[28] = target: Testis-specific serine/threonine-protein kinase 2 (Homo sapiens, UniProt Q96PF2); test: Inhibition of TSSK2
[29] = target: T7, Proto-oncogene tyrosine-protein kinase Src (Homo sapiens, UniProt P12931); test: Inhibition of cSrc at 10 uM
[30] = target: Phosphorylase b kinase gamma catalytic chain, liver/testis isoform (Homo sapiens) (UniProt P15735); test: Inhibition of PhKg2 at 10 uM
[31] = target: T2, Serine/threonine-protein kinase WNK3; test: Inhibition of WNK3
[32] = target: T8, Tyrosine-protein kinase ABL1 (Homo sapiens, UniProt P00519); test: Inhibition of Abl
[33] = target: Receptor-type tyrosine-protein kinase FLT3 (Homo sapiens) (UniProt P36888); test: Inhibition of Flt3 at 10 uM
[34] = target: T9, Mitogen-activated protein kinase kinase kinase 9 (Homo sapiens, UniProt P80192); test: Inhibition of MLK1
[35] = target: Phosphorylase b kinase gamma catalytic chain, liver/testis isoform (Homo sapiens, UniProt P15735); test: Inhibition of PhKg2
[36] = target: T10, Vascular endothelial growth factor receptor 3 (Homo sapiens, UniProt P35916); test: Inhibition of FLT4
[37] = target: T11, Mitogen-activated protein kinase 14 (Homo sapiens, UniProt Q16539); test: Inhibition of SAPK2a
Focal adhesion kinase 1 [38] = target: T12, Focal adhesion kinase 1 (Homo sapiens, UniProt Q05397); test: Inhibition of FAK at 10 uM
[39] = target: T13, Serine/threonine-protein kinase SIK1 (Homo sapiens, UniProt P57059); test: Inhibition of SIK at 10 uM
[40] = target: T9, Mitogen-activated protein kinase kinase kinase 9; test: Inhibition of MLK1 at 10 uM
[41] = target: T7, Proto-oncogene tyrosine-protein kinase Src; test: Inhibition of cSrc
[42] = target: Testis-specific serine/threonine-protein kinase 2 (Homo sapiens) (UniProt Q96PF2); conditions: 10 uM
Description: Inhibition of TSSK2 at 10 uM

[43] = target: T14, ALK tyrosine kinase receptor (Homo sapiens, UniProt Q9UM73); test: Inhibition of ALK
Focal adhesion kinase 1 [44] = target: T12, Focal adhesion kinase 1; test: Inhibition of FAK
[45] = target: BDNF/NT-3 growth factors receptor (Homo sapiens, UniProt Q16620); test: Inhibition of TrkB
[46] = target: Tyrosine-protein kinase Lck (Homo sapiens, UniProt P06239); test: Inhibition of Lck
[47] = target: T11, Mitogen-activated protein kinase 14; test: Inhibition of SAPK2a at 10 uM
[48] = target: T3, Fibroblast growth factor receptor 1; test: Inhibition of FGFR1 at 10 uM
[49] = target: T13, Serine/threonine-protein kinase SIK1; test: Inhibition of SIK
[50] = target: T14, ALK tyrosine kinase receptor; test: Inhibition of ALK at 10 uM
[51] = target: T8, Tyrosine-protein kinase ABL1; conditions: 10 uM
Description: Inhibition of Abl at 10 uM

[52] = target: Muscle, skeletal receptor tyrosine-protein kinase (Homo sapiens, UniProt O15146); test: Inhibition of MuSk
[53] = target: T10, Vascular endothelial growth factor receptor 3; test: Inhibition of FLT4 at 10 uM
[54] = target: T4, Tyrosine-protein kinase JAK2; test: Inhibition of JAK2 at 10 uM
[55] = target: T6, Tyrosine-protein kinase Fgr; test: Inhibition of Fgr

Voltage-gated inwardly rectifying potassium channel KCNH2, sequence (Q12809 whole entry): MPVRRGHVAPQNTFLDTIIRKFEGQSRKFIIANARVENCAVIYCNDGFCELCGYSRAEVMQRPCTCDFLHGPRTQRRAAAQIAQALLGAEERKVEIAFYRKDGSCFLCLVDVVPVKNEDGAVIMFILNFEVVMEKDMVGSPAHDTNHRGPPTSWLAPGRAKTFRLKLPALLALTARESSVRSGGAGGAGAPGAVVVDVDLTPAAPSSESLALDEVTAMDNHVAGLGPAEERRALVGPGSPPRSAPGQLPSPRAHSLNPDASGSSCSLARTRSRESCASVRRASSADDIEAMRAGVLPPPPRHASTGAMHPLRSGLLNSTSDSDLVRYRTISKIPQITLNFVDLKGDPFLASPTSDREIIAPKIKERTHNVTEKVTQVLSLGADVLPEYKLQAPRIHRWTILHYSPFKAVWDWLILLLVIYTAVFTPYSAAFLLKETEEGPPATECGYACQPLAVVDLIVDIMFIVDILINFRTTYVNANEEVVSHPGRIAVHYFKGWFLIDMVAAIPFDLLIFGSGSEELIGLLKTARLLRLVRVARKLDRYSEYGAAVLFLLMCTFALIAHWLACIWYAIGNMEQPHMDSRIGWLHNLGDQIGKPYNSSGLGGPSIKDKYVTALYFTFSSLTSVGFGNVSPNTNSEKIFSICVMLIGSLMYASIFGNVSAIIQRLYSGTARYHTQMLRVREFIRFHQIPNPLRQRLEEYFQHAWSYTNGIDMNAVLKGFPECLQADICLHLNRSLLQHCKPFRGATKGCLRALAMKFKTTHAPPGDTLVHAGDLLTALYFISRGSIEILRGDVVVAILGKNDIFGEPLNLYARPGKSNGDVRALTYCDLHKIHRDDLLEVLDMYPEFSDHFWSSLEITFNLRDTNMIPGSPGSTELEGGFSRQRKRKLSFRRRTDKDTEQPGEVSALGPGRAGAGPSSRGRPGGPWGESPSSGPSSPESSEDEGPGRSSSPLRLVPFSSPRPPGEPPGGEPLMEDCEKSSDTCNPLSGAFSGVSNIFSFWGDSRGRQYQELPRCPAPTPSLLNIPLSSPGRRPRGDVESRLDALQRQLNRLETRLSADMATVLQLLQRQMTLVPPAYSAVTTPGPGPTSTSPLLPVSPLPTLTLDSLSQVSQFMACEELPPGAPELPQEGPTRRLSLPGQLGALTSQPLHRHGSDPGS
T10 sequence (P35916 whole entry): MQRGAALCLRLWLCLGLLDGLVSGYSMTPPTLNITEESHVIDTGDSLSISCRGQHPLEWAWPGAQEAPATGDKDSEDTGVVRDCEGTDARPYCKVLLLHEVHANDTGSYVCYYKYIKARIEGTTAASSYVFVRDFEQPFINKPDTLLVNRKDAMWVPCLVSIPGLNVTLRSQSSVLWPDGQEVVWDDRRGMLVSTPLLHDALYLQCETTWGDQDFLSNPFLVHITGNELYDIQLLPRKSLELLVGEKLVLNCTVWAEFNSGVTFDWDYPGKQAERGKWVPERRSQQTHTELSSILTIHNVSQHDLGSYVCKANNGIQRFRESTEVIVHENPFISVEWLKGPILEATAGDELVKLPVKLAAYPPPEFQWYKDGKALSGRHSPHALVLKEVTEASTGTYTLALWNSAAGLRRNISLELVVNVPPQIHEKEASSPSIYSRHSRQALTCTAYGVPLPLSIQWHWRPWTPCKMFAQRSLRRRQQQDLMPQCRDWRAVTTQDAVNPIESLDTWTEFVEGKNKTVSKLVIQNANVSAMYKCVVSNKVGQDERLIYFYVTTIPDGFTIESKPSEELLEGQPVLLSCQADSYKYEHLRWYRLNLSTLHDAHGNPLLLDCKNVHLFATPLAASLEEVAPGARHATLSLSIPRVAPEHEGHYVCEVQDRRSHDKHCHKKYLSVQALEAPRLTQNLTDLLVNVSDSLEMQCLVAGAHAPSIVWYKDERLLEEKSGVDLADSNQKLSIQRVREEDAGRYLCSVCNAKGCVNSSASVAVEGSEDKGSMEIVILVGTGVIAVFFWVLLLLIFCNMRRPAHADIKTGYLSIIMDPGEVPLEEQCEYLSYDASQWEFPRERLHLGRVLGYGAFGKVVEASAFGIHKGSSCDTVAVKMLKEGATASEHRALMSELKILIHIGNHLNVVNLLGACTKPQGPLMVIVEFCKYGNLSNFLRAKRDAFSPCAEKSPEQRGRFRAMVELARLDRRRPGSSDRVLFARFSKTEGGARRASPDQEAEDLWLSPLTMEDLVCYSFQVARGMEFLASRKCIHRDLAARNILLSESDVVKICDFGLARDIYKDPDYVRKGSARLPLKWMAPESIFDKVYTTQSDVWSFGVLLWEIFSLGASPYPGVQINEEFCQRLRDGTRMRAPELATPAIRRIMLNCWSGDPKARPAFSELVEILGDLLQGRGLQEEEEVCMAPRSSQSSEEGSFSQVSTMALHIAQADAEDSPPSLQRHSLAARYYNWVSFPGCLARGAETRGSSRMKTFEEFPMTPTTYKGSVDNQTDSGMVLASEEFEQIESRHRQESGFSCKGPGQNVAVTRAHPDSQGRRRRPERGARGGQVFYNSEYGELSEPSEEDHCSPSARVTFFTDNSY
T8 sequence (P00519 whole entry): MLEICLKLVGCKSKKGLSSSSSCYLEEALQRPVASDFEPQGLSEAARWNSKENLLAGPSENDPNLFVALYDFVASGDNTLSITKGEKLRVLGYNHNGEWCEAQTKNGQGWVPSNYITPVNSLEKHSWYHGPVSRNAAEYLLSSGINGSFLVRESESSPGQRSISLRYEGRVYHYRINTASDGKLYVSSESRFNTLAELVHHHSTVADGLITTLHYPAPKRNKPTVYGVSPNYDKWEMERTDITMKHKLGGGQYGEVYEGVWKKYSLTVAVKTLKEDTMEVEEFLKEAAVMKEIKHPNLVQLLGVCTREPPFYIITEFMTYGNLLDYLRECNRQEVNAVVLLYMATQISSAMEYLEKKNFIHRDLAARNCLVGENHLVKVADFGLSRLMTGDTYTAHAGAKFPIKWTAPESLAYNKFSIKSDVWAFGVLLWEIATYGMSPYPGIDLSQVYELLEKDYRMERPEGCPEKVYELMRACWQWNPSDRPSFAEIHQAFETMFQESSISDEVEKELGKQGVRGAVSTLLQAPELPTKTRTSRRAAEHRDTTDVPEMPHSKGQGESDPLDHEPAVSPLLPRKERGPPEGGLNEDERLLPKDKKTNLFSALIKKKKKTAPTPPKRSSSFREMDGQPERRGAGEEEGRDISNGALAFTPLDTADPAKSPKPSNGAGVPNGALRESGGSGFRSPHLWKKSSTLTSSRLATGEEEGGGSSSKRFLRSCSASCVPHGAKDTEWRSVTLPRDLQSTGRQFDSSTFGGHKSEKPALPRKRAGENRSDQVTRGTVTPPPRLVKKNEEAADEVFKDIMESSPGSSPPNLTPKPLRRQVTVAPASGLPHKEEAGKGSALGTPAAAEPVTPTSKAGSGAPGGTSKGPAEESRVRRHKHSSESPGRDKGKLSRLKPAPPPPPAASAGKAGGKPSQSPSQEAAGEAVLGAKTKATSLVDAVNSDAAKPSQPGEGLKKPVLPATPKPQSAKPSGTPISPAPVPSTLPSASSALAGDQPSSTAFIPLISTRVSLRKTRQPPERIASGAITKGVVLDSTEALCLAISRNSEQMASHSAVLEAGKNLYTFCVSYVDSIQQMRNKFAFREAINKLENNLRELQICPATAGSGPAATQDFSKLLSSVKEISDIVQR
T7 sequence (P12931 2-536 limits assumed): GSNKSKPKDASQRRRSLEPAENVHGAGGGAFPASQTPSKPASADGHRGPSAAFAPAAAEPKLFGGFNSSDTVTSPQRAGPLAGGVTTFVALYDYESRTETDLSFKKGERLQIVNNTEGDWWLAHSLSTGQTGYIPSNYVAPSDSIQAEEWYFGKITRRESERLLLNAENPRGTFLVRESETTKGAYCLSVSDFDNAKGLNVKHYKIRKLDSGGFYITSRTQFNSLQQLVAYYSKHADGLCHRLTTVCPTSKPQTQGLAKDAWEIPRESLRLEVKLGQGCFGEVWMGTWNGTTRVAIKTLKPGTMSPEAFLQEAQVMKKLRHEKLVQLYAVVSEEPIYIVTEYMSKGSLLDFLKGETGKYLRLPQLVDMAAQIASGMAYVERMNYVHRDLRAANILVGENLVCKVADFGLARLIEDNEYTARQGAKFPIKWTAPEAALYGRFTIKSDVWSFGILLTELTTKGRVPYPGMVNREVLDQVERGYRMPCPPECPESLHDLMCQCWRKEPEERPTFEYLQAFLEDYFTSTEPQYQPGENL
T11 sequence (Q16539 whole entry): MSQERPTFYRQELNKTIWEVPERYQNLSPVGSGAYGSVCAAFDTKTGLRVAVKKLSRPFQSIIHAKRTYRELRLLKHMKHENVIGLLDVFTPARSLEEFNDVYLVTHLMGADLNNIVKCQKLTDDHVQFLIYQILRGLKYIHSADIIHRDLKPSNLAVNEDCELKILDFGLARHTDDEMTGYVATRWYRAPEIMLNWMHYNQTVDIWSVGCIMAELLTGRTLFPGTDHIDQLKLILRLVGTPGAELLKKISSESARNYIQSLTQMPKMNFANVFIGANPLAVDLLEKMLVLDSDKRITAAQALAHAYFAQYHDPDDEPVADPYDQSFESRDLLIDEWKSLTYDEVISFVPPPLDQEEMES
Tyrosine-protein kinase Lck, sequence (P06239 whole entry): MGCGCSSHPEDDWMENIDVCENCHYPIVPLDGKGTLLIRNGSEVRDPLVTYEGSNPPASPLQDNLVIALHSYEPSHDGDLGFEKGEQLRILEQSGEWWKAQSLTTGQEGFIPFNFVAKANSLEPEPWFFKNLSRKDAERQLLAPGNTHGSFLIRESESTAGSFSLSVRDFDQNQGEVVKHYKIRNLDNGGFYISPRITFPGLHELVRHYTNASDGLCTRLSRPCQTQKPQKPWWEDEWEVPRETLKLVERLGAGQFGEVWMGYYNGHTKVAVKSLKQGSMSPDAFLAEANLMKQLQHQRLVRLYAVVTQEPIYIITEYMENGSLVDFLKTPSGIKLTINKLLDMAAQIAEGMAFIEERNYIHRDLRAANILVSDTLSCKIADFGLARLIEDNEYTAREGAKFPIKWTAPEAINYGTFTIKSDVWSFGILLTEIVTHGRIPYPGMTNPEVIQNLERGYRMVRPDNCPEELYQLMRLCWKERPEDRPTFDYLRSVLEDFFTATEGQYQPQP

Work on `CC(C)Oc1cc(Nc2nc3c(cc2F)ncn3[C@@H](CO)c2ccc(F)cn2)n[nH]1` yielded a half-life [1] of 1.2 h, a bioavailability [2] of 54% and a fraction unbound (in vitro [3]) of 0.058. The Time (NIH3T3 [4]) was 4 days, the Activity (Mus musculus [5]) was < 5% and the clearance (in vivo) was 51 mL/min/kg. It also gave a hepatocyte CLint (in vitro [6]) of 31 µL/min/1e6 cells, a solubility (physchem) of 220 µM (≈ 91.4 µg/mL) and an Activity (NIH3T3 [7]) of -63%. For the same compound, the inhibition in vivo at 1 mg/kg (NIH3T3 [8]) was 30% and the Activity (NIH3T3 [9]) was -51%.
Compound `CC(C)Oc1cc(-n2cnc3ccc(N[C@@H](CO)c4ccc(F)cn4)nc32)n[nH]1` has a clearance [10] of 15.2 mL/min/kg, a bioavailability [11] of 17% and an Activity (NIH3T3 [12]) of -47%. The half-life [13] was 1 h, the half-life [1] was 2.3 h and the bioavailability [2] was 29%. For the same compound, the IC50 [14] was 52000 nM, the fraction unbound (in vitro [3]) was 0.081 and the clearance (in vivo) was 46 mL/min/kg. For the same compound, the hepatocyte CLint (in vitro [6]) was 13 µL/min/1e6 cells, the solubility (physchem) was 250 µM (≈ 99.4 µg/mL) and the Activity (Mus musculus [15]) was < 5%. The inhibition in vivo at 1 mg/kg (NIH3T3 [8]) was 12%.
`C[C@H](Nc1ccc2ncn(-c3cc(C4CC4)[nH]n3)c2n1)c1ncc(F)cn1` gave a half-life [1] of 1.2 h, a bioavailability [2] of 33% and a fraction unbound (in vitro [3]) of 0.16. It also gave a clearance (in vivo) of 39 mL/min/kg, a hepatocyte CLint (in vitro [6]) of 48 µL/min/1e6 cells and a solubility (physchem) of 590 µM (≈ 215 µg/mL).
For `Cc1cc(-n2cnc3ccc(N[C@@H](C)c4ncc(F)cn4)nc32)n[nH]1`, the half-life [1] was 0.82 h, the bioavailability [2] was 92% and the IC50 [14] was > 32000 nM. The fraction unbound (in vitro [3]) was 0.39, the clearance (in vivo) was 45 mL/min/kg and the solubility (physchem) was > 1000 µM.
For `COc1cc(Nc2nc3c(cc2F)ncn3[C@@H](CO)c2ccc(F)cn2)n[nH]1`, the half-life [1] was 3.2 h, the bioavailability [2] was 41% and the IC50 [14] was > 32000 nM. It also gave a clearance (in vivo) of 33 mL/min/kg, a hepatocyte CLint (in vitro [6]) of 29 µL/min/1e6 cells and a solubility (physchem) of 150 µM (≈ 58.1 µg/mL).
In the case of `CC(C)Oc1cc(-n2cnc3cnc(N[C@@H](C)c4ncc(F)cn4)nc32)n[nH]1`, the half-life [1] is reported as 3.8 h, the bioavailability [2] is reported as 29% and the IC50 [14] is reported as > 32000 nM. The fraction unbound (in vitro [3]) was 0.31, the clearance (in vivo) was 130 mL/min/kg and the hepatocyte CLint (in vitro [6]) was 24 µL/min/1e6 cells. The solubility (physchem) was 480 µM (≈ 184 µg/mL).
In the case of `CC(C)Oc1cc(-n2cnc3ccc(N[C@@H](C)c4ccc(F)cn4)nc32)n[nH]1`, the inhibition [16] is reported as > 30%, the IC50 [17] is reported as < 100 nM and the inhibition [18] is reported as > 30%. It also gave an IC50 [19] of 2.1 nM, an IC50 [20] of 8.7 nM and a half-life [1] of 0.97 h. For the same compound, the bioavailability [2] was 6.7%, the inhibition [21] was > 30% and the IC50 [22] was 68.3 nM. For the same compound, the IC50 [14] was > 32000 nM, the IC50 [23] was 72.2 nM and the fraction unbound (in vitro [3]) was 0.06. The IC50 [24] was 1.4 nM, the inhibition [25] was > 30% and the IC50 [26] was 3.5 nM. For the same compound, the inhibition [27] was > 30%, the IC50 [28] was 30.6 nM and the inhibition [29] was > 30%. The inhibition [30] was > 30%, the IC50 [31] was 99.8 nM and the clearance (in vivo) was 41 mL/min/kg. The IC50 [32] was 1.2 nM, the inhibition [33] was > 30% and the hepatocyte CLint (in vitro [6]) was 42 µL/min/1e6 cells. It also gave an IC50 [34] of 44.3 nM, an IC50 [35] of 6.1 nM and an IC50 [36] of 64 nM. For the same compound, the IC50 [37] was 13.4 nM, the inhibition (Focal adhesion kinase 1 [38]) was > 30% and the inhibition [39] was > 30%. The inhibition [40] was > 30%, the IC50 [41] was 18.2 nM and the inhibition [42] was > 30%. For the same compound, the IC50 [43] was 34.1 nM, the IC50 (Focal adhesion kinase 1 [44]) was 17.2 nM and the IC50 [45] was < 100 nM. The IC50 [46] was < 100 nM, the inhibition [47] was > 30% and the inhibition [48] was > 30%. The IC50 [49] was 5.5 nM, the inhibition [50] was > 30% and the inhibition [51] was > 30%. For the same compound, the IC50 [52] was < 100 nM, the inhibition [53] was > 30% and the inhibition [54] was > 30%. The IC50 [55] was 2.2 nM.
